Consider 34 compounds from ChEMBL document CHEMBL1201862, “PubChem BioAssay data set” (2004).

Assay [1] concerns the target T1, Heat shock factor protein 1 (Mus musculus, UniProt P38532).
T1 sequence (P38532 whole entry): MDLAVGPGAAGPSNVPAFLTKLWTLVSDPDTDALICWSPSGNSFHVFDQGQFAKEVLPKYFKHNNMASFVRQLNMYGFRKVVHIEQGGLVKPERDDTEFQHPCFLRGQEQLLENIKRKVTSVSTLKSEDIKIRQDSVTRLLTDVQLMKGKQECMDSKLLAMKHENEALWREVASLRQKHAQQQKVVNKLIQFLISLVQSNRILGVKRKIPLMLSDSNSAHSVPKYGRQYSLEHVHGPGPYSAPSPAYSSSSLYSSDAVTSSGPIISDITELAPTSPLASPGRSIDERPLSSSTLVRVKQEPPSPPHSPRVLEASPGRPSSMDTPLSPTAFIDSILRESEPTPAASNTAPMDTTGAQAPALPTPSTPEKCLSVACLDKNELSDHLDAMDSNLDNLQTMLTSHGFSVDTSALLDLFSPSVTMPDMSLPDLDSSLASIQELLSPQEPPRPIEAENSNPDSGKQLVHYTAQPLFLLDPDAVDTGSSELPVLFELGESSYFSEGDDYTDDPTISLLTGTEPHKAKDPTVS
Put plainly: HSF1 potentiators in luciferase reporter cells, confirmation, cell-based, NIH3T3, luminescence, dose retest (AID 435004).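 Further: stress induced by proteasome inhibitor MG132 added 30 min after compound; luciferase reporter driven by HSF1 response element in NIH3T3 cells; actives raise luminescence as potentiators of the MG132 stress response.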 In kind it is functional. Background: In a reporter assay the amount or activity of a reporter protein is the signal.

A further assay concerns the target Cytochrome P450 3A4 (Homo sapiens, UniProt P08684).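 Further: CYP3A4 tested as one member of a cytochrome P450 panel screen.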
A further assay has as its target T2, Cytochrome P450 1A2 (Homo sapiens, UniProt P05177).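 Further: PubChem cytochrome P450 panel assay, CYP1A2 panel member.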
T2 sequence (P05177 whole entry): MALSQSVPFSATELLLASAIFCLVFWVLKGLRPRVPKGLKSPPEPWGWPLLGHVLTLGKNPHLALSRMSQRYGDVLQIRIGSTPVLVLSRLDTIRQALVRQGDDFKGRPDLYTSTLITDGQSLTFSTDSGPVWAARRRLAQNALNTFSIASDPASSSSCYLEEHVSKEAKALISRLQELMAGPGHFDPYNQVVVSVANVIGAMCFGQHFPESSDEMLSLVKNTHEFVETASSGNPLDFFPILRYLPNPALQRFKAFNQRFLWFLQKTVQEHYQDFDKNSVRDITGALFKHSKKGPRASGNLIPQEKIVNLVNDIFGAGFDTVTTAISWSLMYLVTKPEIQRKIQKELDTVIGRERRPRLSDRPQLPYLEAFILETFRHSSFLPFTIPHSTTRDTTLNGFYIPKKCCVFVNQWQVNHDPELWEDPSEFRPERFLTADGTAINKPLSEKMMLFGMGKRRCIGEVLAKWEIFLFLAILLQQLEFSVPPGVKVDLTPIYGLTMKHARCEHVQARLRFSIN

The next assay addresses Cytochrome P450 2C9 (Homo sapiens, UniProt P11712).
For assay [2], the target named is T3, RNA-binding protein pos-1 (Caenorhabditis elegans, UniProt G5EF15).
T3 sequence (G5EF15 whole entry): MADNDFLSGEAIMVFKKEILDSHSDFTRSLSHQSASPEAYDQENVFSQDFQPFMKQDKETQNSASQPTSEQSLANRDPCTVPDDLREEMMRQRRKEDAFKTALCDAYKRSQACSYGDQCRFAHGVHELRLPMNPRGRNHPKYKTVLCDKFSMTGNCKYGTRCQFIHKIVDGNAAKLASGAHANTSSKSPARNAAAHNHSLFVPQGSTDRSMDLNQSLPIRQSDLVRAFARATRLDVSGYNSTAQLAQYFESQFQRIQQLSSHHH
Briefly: inhibitors of POS-1/mex-3 RNA binding, dose response, biochemical, fluorescence polarization (AID 1964).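 Further: purified POS-1 fused to maltose binding protein made in E. coli; potency of compounds blocking POS-1 binding to fluorescent RNA.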

In assay [3] the target is T4, Zinc finger protein mex-5 (Caenorhabditis elegans, UniProt Q9XUB2).
T4 sequence (Q9XUB2 whole entry): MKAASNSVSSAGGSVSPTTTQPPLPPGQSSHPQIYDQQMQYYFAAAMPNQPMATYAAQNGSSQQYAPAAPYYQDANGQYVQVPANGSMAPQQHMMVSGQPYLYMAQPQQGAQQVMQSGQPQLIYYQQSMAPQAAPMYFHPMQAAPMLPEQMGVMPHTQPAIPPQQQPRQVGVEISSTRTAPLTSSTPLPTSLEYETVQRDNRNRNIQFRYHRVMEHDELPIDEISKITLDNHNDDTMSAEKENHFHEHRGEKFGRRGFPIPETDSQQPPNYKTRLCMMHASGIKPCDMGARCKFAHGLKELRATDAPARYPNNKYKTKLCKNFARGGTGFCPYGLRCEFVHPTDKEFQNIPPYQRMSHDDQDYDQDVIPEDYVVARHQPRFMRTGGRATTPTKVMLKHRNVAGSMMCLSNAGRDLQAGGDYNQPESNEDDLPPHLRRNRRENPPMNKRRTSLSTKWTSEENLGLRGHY
Put plainly: MEX-5/TCR-2 RNA interaction inhibitors, dose response, biochemical, C. elegans, fluorescence polarization (AID 1960). (In fluorescence polarisation assays a small probe gives low polarisation when free and higher when bound to something large.)

For assay [4], the target named is T5, Corticotropin-releasing factor receptor 2/Corticotropin-releasing factor-binding protein (Homo sapiens, UniProt P24387+Q13324).
T5 sequence (Q13324 whole entry): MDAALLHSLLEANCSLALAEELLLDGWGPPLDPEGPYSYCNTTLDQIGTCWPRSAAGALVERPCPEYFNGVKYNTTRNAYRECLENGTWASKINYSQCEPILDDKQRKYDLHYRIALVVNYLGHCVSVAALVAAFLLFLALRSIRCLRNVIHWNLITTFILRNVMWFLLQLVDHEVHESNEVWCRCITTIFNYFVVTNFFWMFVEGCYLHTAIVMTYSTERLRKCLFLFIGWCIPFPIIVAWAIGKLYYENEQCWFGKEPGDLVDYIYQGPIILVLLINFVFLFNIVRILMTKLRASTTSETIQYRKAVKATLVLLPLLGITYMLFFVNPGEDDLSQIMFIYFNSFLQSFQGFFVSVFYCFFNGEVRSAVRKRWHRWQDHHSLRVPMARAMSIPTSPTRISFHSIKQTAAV
T5 sequence (P24387 whole entry): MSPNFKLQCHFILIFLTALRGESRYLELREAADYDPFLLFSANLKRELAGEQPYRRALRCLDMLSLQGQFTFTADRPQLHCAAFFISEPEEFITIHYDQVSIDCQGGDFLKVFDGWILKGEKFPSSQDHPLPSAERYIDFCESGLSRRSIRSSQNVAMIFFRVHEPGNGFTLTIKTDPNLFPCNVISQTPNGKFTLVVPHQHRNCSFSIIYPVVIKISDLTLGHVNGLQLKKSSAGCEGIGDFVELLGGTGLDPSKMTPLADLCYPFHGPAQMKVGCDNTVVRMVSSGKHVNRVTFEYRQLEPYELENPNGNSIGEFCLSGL
Briefly: activators of CRF receptor 2 with binding protein – uHTS hits, confirmation (AID 602473). Conditions: read-out: EC50_Mean. In kind it is functional.

In assay [5] the test system is Streptococcus sp. 'group A'. Briefly: growth inhibition of control SK(-) GAS strain, dose response, counter-screen for streptokinase expression inhibitor project, luminescence, kanamycin, BacTiterGlo, confirmation (AID 1900). In kind it is functional, organism-based. (A counterscreen serves to expose hits that act by an unwanted route or on another target.)
In the next assay the test system is Streptococcus. Briefly: Group A Streptococcus viability loss, dose response, counter-screen for streptokinase expression inhibitor project, luminescence, BacTiterGlo (AID 1915).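 Further: potency for reduction of bacterial viability or growth.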 The format is functional, organism-based.

The structures appear in SMILES notation. Active and inactive are the calls of the source. For most assays here, no stated cut-off is given here; in the data, actives have a measured EC50 and inactives only a lower limit. Bounds are passed on as bounds.

Chain of Cytochrome P450 3A4 (P08684 whole entry): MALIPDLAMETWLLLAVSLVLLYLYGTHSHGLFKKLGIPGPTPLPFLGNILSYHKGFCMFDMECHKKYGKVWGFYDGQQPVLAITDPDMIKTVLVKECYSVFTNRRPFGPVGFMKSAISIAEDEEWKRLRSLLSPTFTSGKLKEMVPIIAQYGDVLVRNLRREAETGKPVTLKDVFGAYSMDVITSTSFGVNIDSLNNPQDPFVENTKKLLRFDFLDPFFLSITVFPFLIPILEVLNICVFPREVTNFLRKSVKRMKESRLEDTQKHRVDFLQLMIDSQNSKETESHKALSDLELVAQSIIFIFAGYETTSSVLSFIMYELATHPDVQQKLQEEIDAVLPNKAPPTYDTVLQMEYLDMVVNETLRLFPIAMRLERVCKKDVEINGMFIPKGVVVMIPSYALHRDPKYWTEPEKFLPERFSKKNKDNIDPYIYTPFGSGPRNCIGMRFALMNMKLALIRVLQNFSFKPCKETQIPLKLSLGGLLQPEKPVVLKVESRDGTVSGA
Chain of Cytochrome P450 2C9 (P11712 whole entry): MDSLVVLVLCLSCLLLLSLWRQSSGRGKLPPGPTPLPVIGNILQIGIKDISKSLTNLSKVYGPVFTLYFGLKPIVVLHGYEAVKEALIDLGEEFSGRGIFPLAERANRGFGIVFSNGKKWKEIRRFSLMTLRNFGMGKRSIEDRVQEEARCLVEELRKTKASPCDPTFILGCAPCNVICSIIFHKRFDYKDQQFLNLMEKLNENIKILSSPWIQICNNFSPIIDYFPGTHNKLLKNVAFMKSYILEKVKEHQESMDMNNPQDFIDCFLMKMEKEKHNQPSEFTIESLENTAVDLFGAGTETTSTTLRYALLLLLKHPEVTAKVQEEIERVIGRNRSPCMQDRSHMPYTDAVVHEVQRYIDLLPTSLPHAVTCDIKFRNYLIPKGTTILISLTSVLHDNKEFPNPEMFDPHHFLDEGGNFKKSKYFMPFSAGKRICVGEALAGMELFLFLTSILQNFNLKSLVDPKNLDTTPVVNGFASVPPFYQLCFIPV

For `CCn1c(SCC(=O)c2ccc(Cl)cc2)nnc1-c1ccoc1C`, the EC50 in assay [1] was > 260 µM (inactive).
In the case of `CC(C)(C)c1ccc(-c2nnc(SCc3ccc(Cl)cc3)n2-c2cccc(C(F)(F)F)c2)cc1`, the concentration at half-maximal activity (AC50) at Cytochrome P450 3A4, at Cytochrome P450 1A2 and at Cytochrome P450 2C9 was 3.16 µM (inconclusive) in each case.
For the compound `COC(=O)N1CCC2(CCCN(C(=O)Nc3cccc(F)c3)C2)CC1`, the half-maximal activity concentration (AC50) (commonly the concentration at which the activity in the assay is half-maximal) on Cytochrome P450 3A4 is 25.1 µM (inconclusive).
For the compound `O=C1NC(=O)N(Cc2ccccc2)C(=O)/C1=C/NNC(=O)c1ccncc1`, the EC50 was 43.9 µM (active) in assay [2] and 93.9 µM (active) in [3].
With `CCc1ccc2c(-c3cccc(Cl)c3)nc(=O)n(CC)c2n1`, the half-maximal activity concentration (AC50) on Cytochrome P450 3A4 is 31.6 µM (inconclusive); at Cytochrome P450 2C9, 39.8 µM (inconclusive).
With `C[C@@]1(C(NC(=O)c2cccs2)c2ccc(-c3ccccc3)cc2)C[C@H]1C1CCCCC1` (some centres undefined), the AC50 on Cytochrome P450 3A4 was 20 µM (inconclusive).
Regarding `COc1ccc(CNC(=O)C(c2ccc(C)o2)N(C(=O)c2csnn2)c2ccc(C(C)C)cc2)cc1` (centres undefined), in assay [1], the EC50 is 73.7 µM (active).
For the compound `O=C(O)c1ccccc1N(c1ccccc1)c1ccccc1`, the EC50 in [2] and in assay [3] was > 300 µM (not active) in each case.
As for `CCCCn1cnc2c(oc3nc4c(cc32)CCCC4)c1=O`, the EC50 in [1] was > 260 µM (inactive).
On to `CC(C)CNC(=O)C1Nc2ccc(OC(F)(F)F)cc2C2C=CCC12` (centres undefined), for which the EC50 in assay [2] and in assay [3] was > 300 µM (not active) in each case.
For `CN1CCN(c2ncc3nc(-c4cn(C)c5ccccc45)c(=O)n(C)c3n2)CC1`, the figures for the half-maximal activity concentration (AC50) on Cytochrome P450 3A4, on Cytochrome P450 1A2 and at Cytochrome P450 2C9 were 25.1 µM (inconclusive), 31.6 µM (inconclusive) and 12.6 µM (inconclusive), respectively.
With `Cc1cccc(/C=C(\C(=O)C(=O)O)c2ccc3ccccc3n2)c1`, the EC50 was 27.2 µM (active) in [2] and 22.9 µM (active) in assay [3].
Consider `Cc1cccn2c(=O)c3cc(S(=O)(=O)c4ccccc4)c(=N)n(CC4CCCO4)c3nc12` (centres undefined), for which the results for the EC50 in [2] and in assay [3] were 5.7 µM (inconclusive) and > 300 µM (inconclusive), respectively.
Turning to `C/C(CCC(=O)OC[C@@H]1O[C@H](C#Cc2ccccc2)C=C[C@@H]1Oc1ccc(C)cc1)=N/OC[C@@H](O)COCc1ccco1`, the AC50 at Cytochrome P450 2C9 is 1.58 µM (inconclusive).
As for `Cc1cc(C)n(CCCNCC(O)c2ccccc2)n1` (centres undefined), the AC50 was 35.5 µM (inconclusive) on Cytochrome P450 3A4 and 39.8 µM (inconclusive) on Cytochrome P450 1A2.
The like results for `COc1cc(OC)c2c(c1Cl)O[C@@]1(C2=O)[C@H](C)CC(=O)C[C@@H]1OC` were, in that order, 12.6 µM (inconclusive) and 15.8 µM (inconclusive).
Take `CNc1nc(Nc2ccc(C)c(Cl)c2)nc(N)c1[N+](=O)[O-]`: the EC50 in assay [1] is 82.2 µM (active).
Regarding `O=C(c1cccc(F)c1)N1CCC2(CCCN(Cc3ccncc3)C2)CC1`, the AC50 was 3.98 µM (inconclusive) on Cytochrome P450 3A4 and 15.8 µM (inconclusive) at Cytochrome P450 1A2.
For the compound `O=C1NC(=O)C(=Cc2ccc(-c3ccc(S(=O)(=O)N4CCOCC4)cc3)o2)C(=O)N1`, the results for the EC50 in assay [2] and in assay [3] were 40.5 µM (active) and 34.7 µM (active), respectively.
Regarding `O=S(=O)(c1ccccc1)N1CCCC1c1nc2ccccc2s1` (centres undefined), the AC50 at Cytochrome P450 3A4 is 20 µM (inconclusive); at Cytochrome P450 1A2, 25.1 µM (inconclusive).
As to `O=C(c1ccco1)N1CCc2ccccc21`, the EC50 in assay [2] was > 300 µM (not active); in assay [3], 169 µM (active).
In the case of `CCOC(=O)N1CCN(CC(=O)c2ccc(O)cc2O)CC1`, the EC50 in assay [2] was 157 µM (active); in assay [3], 40.7 µM (active).
Take `CCC[C@@H]1C[C@@]1(CCC)C(NC(=O)c1ccccc1)c1cccc(Cl)c1` (some centres undefined): the figures for the AC50 at Cytochrome P450 3A4 and on Cytochrome P450 2C9 were 3.98 µM (inconclusive) and 20 µM (inconclusive), respectively.
Take `Cc1occc1C(=O)NNS(=O)(=O)c1ccc([N+](=O)[O-])cc1`: the EC50 in [1] was > 260 µM (inactive).
In the case of `O=C(NCc1cccc(F)c1)c1cccc2c1C(=O)c1ccc(N3CCCC3)cc1S2(=O)=O`, the EC50 in assay [4] is 6.84 µM (active).
As to `COc1ccccc1N1CCN(C2CCCCC2NS(=O)(=O)c2ccc(Cl)cc2)CC1` (centres undefined), in assay [4], the EC50 was 4.3 µM (active).
For `CCOC(=O)Cn1nnc(-c2cccc(OC)c2)n1`, in assay [1], the EC50 is > 260 µM (inactive).
`O=C(N/N=C/c1c(O)ccc2ccccc12)Nc1ccccc1`: the EC50 in assay [5] is 8.29 µM (active); in assay [3] it was > 300 µM (not active); in the assay with Streptococcus, 8.39 µM (active).
Regarding `CN(C)c1ccc(/C=N/NC2=NS(=O)(=O)c3ccccc32)cc1`, the values for the EC50 in assay [2] and in [3] were 39.3 µM (active) and > 300 µM (inconclusive), respectively.
For `COc1ccc(/C=N/n2cncn2)cc1COc1ccc(NC(C)=O)cc1`, in assay [1], the EC50 is > 260 µM (inactive).
For the compound `O=C(NNC(=O)c1ccccc1[N+](=O)[O-])/C(O)=C/C(=O)c1ccccc1`, the EC50 in assay [2] is 70 µM (active); in assay [3], 1.11 µM (active).
For the compound `CCOC(=O)c1c(/N=C/C2C(=O)NC(=S)NC2=O)sc(C)c1C`, the EC50 in assay [2] is > 300 µM (not active); in assay [3] it was > 300 µM (inconclusive).
Take `COc1ccc(C(OCCN2CCC[C@@H](C(=O)O)C2)(c2ccc(OC)cc2)c2ccc(OC)cc2)cc1`: the AC50 at Cytochrome P450 3A4 and at Cytochrome P450 1A2 was 31.6 µM (inconclusive) each time.
For the compound `CCOC(=O)C1=C(C)NC(=S)NC1c1cccc(O)c1` (centres undefined) [MONASTROL], the results for the concentration at half-maximal activity (AC50) on Cytochrome P450 1A2 and on Cytochrome P450 2C9 were 39.8 µM (inconclusive) and 20 µM (inconclusive), respectively.
